Data from patent US11279687B2, “Compounds and compositions for the inhibition of NAMPT” (Valo Health, Inc., priority 2010, dated 2022).
Like-named read-outs stand apart in the source and are kept apart here.

Columns and labels:
[1] = biological target: NAMPT (Homo sapiens (Human), UniProt P43490); experiment: NAMPT biochemical inhibition assay (NMN quantified by mass spectrometry); conditions: NAMPT biochemical inhibition; read-out: Biochem IC50
[2] = test system: A2780 cells; experiment: In-vitro cell proliferation assay (SRB), A2780 cells; assay type: cell-based; conditions: A2780 cells, 72 hours, SRB, read-out: A2780 IC50;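 also: viable cell number read as SRB absorbance, background from media-only wells subtracted, IC50 interpolated from percent inhibition at two bracketing compound concentrations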

NAMPT, sequence (P43490 whole entry): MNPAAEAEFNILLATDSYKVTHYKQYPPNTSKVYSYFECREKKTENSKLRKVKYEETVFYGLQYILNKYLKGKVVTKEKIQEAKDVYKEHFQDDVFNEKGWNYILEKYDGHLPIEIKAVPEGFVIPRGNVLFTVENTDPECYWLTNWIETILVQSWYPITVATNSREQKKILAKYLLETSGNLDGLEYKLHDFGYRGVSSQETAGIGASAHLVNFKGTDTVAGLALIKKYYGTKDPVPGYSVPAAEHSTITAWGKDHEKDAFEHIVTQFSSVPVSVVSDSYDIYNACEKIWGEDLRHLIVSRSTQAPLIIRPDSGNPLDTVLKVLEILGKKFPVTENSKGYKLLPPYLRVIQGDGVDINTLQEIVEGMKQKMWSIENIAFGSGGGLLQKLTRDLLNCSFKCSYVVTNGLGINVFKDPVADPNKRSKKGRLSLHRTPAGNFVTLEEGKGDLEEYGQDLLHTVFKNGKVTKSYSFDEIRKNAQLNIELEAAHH

`O=C(NCc1cccnc1)Nc1ccc(S(=O)(=O)N2CCc3ccccc32)cc1` [3-[4-(2,3-dihydro-1H-indole-1-sulfonyl)phenyl]-1-(pyridin-3-ylmethyl)urea] gave an IC50 [1] of 2 nM and an IC50 ([2]; Homo sapiens, A2780, 72 h) of 31 nM.

For `COc1ncc(S(=O)(=O)c2ccc(NC(=O)NCc3cccnc3)cc2)c(OC)n1` [3-[4-(2,4-dimethoxypyrimidine-5-sulfonyl)phenyl]-1-(pyridin-3-ylmethyl)urea], the IC50 [1] was 6.7 nM and the IC50 ([2]; Homo sapiens, A2780, 72 h) was 21 nM.

`COc1ccc2ccccc2c1S(=O)(=O)c1ccc(NC(=O)NCc2cccnc2)cc1` [3-[4-(2-methoxynaphthalene-1-sulfonyl)phenyl]-1-(pyridin-3-ylmethyl)urea] gave an IC50 [1] of 2 nM and an IC50 ([2]; Homo sapiens, A2780, 72 h) of 12 nM.

`COc1ncc(S(=O)(=O)c2ccc(NC(=O)NCc3cccnc3)cc2)cn1` [3-[4-(2-methoxypyrimidine-5-sulfonyl)phenyl]-1-(pyridin-3-ylmethyl)urea] was tested, and the IC50 [1] was 8.7 nM and the IC50 ([2]; Homo sapiens, A2780, 72 h) was 100 to 1000 nM.

Work on `Cc1ncccc1S(=O)(=O)c1ccc(NC(=O)NCc2cccnc2)cc1` [3-[4-(2-methylpyridine-3-sulfonyl)phenyl]-1-(pyridin-3-ylmethyl)urea] yielded an IC50 [1] of 7.2 nM and an IC50 ([2]; Homo sapiens, A2780, 72 h) of 100 to 1000 nM.

`O=C(NCc1cccnc1)Nc1ccc(S(=O)(=O)N2CC(F)(F)C2)cc1` [3-[4-(3,3-difluoroazetidine-1-sulfonyl)phenyl]-1-(pyridin-3-ylmethyl)urea] gave an IC50 [1] of 59 nM and an IC50 ([2]; Homo sapiens, A2780, 72 h) of 7860 nM.

For `Cc1noc(C)c1S(=O)(=O)c1ccc(NC(=O)NCc2cccnc2)cc1` [3-[4-(3,5-dimethyl-1,2-oxazole-4-sulfonyl)phenyl]-1-(pyridin-3-ylmethyl)urea], the IC50 [1] was 20 nM and the IC50 ([2]; Homo sapiens, A2780, 72 h) was 850 nM.

With `CC(C)c1ccc(CN2CCN(S(=O)(=O)c3ccc(NC(=O)NCc4cccnc4)cc3)CC2)cc1` [3-[4-(4-{[4-(propan-2-yl)phenyl]methyl[piperazine-1-sulfonyl)phenyl]-1-(pyridin-3-ylmethyl)urea] the IC50 [1] was 35.8 nM and the IC50 [2] was 1000 to 10000 nM.

`O=C(NCc1cccnc1)Nc1ccc(S(=O)(=O)c2cncc(Cl)c2)cc1` [3-[4-(5-chloropyridine-3-sulfonyl)phenyl]-1-(pyridin-3-ylmethyl)urea] was tested, and the IC50 [1] was 2.6 nM and the IC50 ([2]; Homo sapiens, A2780, 72 h) was 98.2 nM.

Molecule `O=C(NCc1cccnc1)Nc1ccc(S(=O)(=O)c2cncc(F)c2)cc1` [3-[4-(5-fluoropyridine-3-sulfonyl)phenyl]-1-(pyridin-3-ylmethyl)urea] has an IC50 [1] of 8.7 nM and an IC50 ([2]; Homo sapiens, A2780, 72 h) of 100 to 1000 nM.

Work on `Cc1ccc(S(=O)(=O)c2ccc(NC(=O)NCc3cccnc3)cc2)s1` [3-[4-(5-methylthiophene-2-sulfonyl)phenyl]-1-(pyridin-3-ylmethyl)urea] yielded an IC50 [1] of 3 nM and an IC50 ([2]; Homo sapiens, A2780, 72 h) of 383 nM.

With `COc1ccc2cc(S(=O)(=O)c3ccc(NC(=O)NCc4cccnc4)cc3)ccc2c1` [3-[4-(6-methoxynaphthalene-2-sulfonyl)phenyl]-1-(pyridin-3-ylmethyl)urea] the IC50 [1] was 1.6 nM and the IC50 ([2]; Homo sapiens, A2780, 72 h) was 100 to 1000 nM.

With `COc1ccc(S(=O)(=O)c2ccc(NC(=O)NCc3cccnc3)cc2)cn1` [3-[4-(6-methoxypyridine-3-sulfonyl)phenyl]-1-(pyridin-3-ylmethyl)urea] the IC50 [1] was 5 nM and the IC50 ([2]; Homo sapiens, A2780, 72 h) was 100 to 1000 nM.

For `Cc1ccc(S(=O)(=O)c2ccc(NC(=O)NCc3cccnc3)cc2)cn1` [3-[4-(6-methylpyridine-3-sulfonyl)phenyl]-1-(pyridin-3-ylmethyl)urea], the IC50 [1] was 4.9 nM and the IC50 ([2]; Homo sapiens, A2780, 72 h) was 100 to 1000 nM.

For `O=C(Nc1ccc(S(=O)(=O)c2ccccc2)cc1)Nc1ccc2ncccc2c1` [3-[4-(benzenesulfonyl)phenyl]-1-(quinolin-6-yl)urea], the IC50 [1] was 90 nM and the IC50 ([2]; Homo sapiens, A2780, 72 h) was 15900 nM.

`O=C(NCc1ccc(-n2cccn2)nc1)Nc1ccc(S(=O)(=O)c2ccccc2)cc1` [3-[4-(benzenesulfonyl)phenyl]-1-{[6-(1H-pyrazol-1-yl)pyridin-3-yl]methyl}urea] showed an IC50 [1] of 3790 nM and an IC50 ([2]; Homo sapiens, A2780, 72 h) greater than 10000 nM.

For `COCCOc1ccc(CNC(=O)Nc2ccc(S(=O)(=O)c3ccccc3)cc2)cn1` [3-[4-(benzenesulfonyl)phenyl]-1-{[6-(2-methoxyethoxy)pyridin-3-yl]methyl}urea], the IC50 [1] was 2120 nM and the IC50 ([2]; Homo sapiens, A2780, 72 h) was greater than 10000 nM.

Work on `O=C(NCc1cnccn1)Nc1ccc(S(=O)(=O)N2CCCCC2)cc1` [3-[4-(piperidine-1-sulfonyl)phenyl]-1-(pyrazin-2-ylmethyl)urea] yielded an IC50 [1] of 273 nM and an IC50 ([2]; Homo sapiens, A2780, 72 h) greater than 30000 nM.

Molecule `O=C(NCc1cncnc1)Nc1ccc(S(=O)(=O)N2CCCCC2)cc1` [3-[4-(piperidine-1-sulfonyl)phenyl]-1-(pyrimidin-5-ylmethyl)urea] has an IC50 [1] of 1140 nM and an IC50 ([2]; Homo sapiens, A2780, 72 h) greater than 30000 nM.

Molecule `CC(NC(=O)Nc1ccc(S(=O)(=O)N2CCCCC2)cc1)c1cccnc1` (stereo not shown) [3-[4-(piperidine-1-sulfonyl)phenyl]-1-[1-(pyridin-3-yl)ethyl]urea] has an IC50 [1] of 22100 nM and an IC50 ([2]; Homo sapiens, A2780, 72 h) greater than 30000 nM.

Work on `O=C(NCc1ccc(C(F)(F)F)nc1)Nc1ccc(S(=O)(=O)N2CCCCC2)cc1` [3-[4-(piperidine-1-sulfonyl)phenyl]-1-{[6-(trifluoromethyl)pyridin-3-yl]methyl]urea] yielded an IC50 [1] of 189 nM and an IC50 ([2]; Homo sapiens, A2780, 72 h) greater than 30000 nM.

For `C[C@H](O)COc1ccccc1NS(=O)(=O)c1ccc(NC(=O)NCc2cccnc2)cc1` [3-[4-({2-[(2S)-2-hydroxypropoxy]phenyl}sulfamoyl)phenyl]-1-(pyridin-3-ylmethyl)urea], the IC50 [1] was 12 nM and the IC50 ([2]; Homo sapiens, A2780, 72 h) was 88 nM.

In the case of `C[C@H](O)c1cccc(NS(=O)(=O)c2ccc(NC(=O)NCc3cccnc3)cc2)c1` [3-[4-({3-[(1S)-1-hydroxyethyl]phenyl}sulfamoyl)phenyl]-1-(pyridin-3-ylmethyl)urea], the IC50 [1] is reported as 7 nM and the IC50 ([2]; Homo sapiens, A2780, 72 h) is reported as 164 nM.

For `CN(C)c1ccc(CNS(=O)(=O)c2ccc(NC(=O)NCc3cccnc3)cc2)cc1` [3-[4-({[4-(dimethylamino)phenyl]methyl}sulfamoyl)phenyl]-1-(pyridin-3-ylmethyl)urea], the IC50 [1] was 3 nM and the IC50 ([2]; Homo sapiens, A2780, 72 h) was 148 nM.

For `NC(=O)c1cccc(S(=O)(=O)c2ccc(NC(=O)NCc3cccnc3)cc2)c1` [3-[(4-{[(pyridin-3-ylmethyl)carbamoyl]amino[benzene)sulfonyl]benzamide], the IC50 [1] was 8 nM and the IC50 ([2]; Homo sapiens, A2780, 72 h) was 1000 to 10000 nM.

`O=C(NCc1cncc(Cl)c1)Nc1ccc(S(=O)(=O)N2CCCCC2)cc1` [3-[(5-chloropyridin-3-yl)methyl]-1-[4-(piperidine-1-sulfonyl)phenyl]urea] showed an IC50 [1] of 48 nM and an IC50 ([2]; Homo sapiens, A2780, 72 h) of 18000 nM.

`Nc1ccc(CNC(=O)Nc2ccc(S(=O)(=O)N3CCCCC3)cc2)cn1` [3-[(6-aminopyridin-3-yl)methyl]-1-[4-(piperidine-1-sulfonyl)phenyl]urea] showed an IC50 [1] of 8.5 nM and an IC50 ([2]; Homo sapiens, A2780, 72 h) of 71.4 nM.

`O=C(NCc1ccc(Cl)nc1)Nc1ccc(S(=O)(=O)N2CCCCC2)cc1` [3-[(6-chloropyridin-3-yl)methyl]-1-[4-(piperidine-1-sulfonyl)phenyl]urea] gave an IC50 [1] of 8 nM and an IC50 ([2]; Homo sapiens, A2780, 72 h) greater than 30000 nM.

For `CCN(CC)C(=O)c1cc(Cl)cc(S(=O)(=O)c2ccc(NC(=O)NCc3cccnc3)cc2)c1` [3-chloro-N,N-diethyl-5-[(4-{[(pyridin-3-ylmethyl)carbamoyl]amino}benzene)sulfonyl]benzamide], the IC50 [1] was 3.5 nM and the IC50 ([2]; Homo sapiens, A2780, 72 h) was 1.7 nM.

In the case of `CN(C)C(=O)c1cc(F)cc(S(=O)(=O)c2ccc(NC(=O)NCc3cccnc3)cc2)c1` [3-fluoro-N,N-dimethyl-5-[(4-{[(pyridin-3-ylmethyl)carbamoyl]amino}benzene)sulfonyl]benzamide], the IC50 [1] is reported as 1.5 nM and the IC50 ([2]; Homo sapiens, A2780, 72 h) is reported as 13.3 nM.

`CN(C)c1ncc(S(=O)(=O)c2ccc(NC(=O)NCc3cccnc3)cc2)cn1` [3-{4-[2-(dimethylamino)pyrimidine-5-sulfonyl]phenyl}-1-(pyridin-3-ylmethyl)urea] showed an IC50 [1] of 5.9 nM and an IC50 ([2]; Homo sapiens, A2780, 72 h) of 100 to 1000 nM.

For `CC(C)c1ccc(S(=O)(=O)c2ccc(NC(=O)NCc3cccnc3)cc2)c(Cl)n1` [3-{4-[2-chloro-6-(propan-2-yl)pyridine-3-sulfonyl]phenyl}-1-(pyridin-3-ylmethyl)urea], the IC50 [1] was 3 nM and the IC50 ([2]; Homo sapiens, A2780, 72 h) was 6 nM.

In the case of `COCCC1CCCN(S(=O)(=O)c2ccc(NC(=O)NCc3cccnc3)cc2)C1` (stereo not shown) [3-{4-[3-(2-methoxyethyl)piperidine-1-sulfonyl]phenyl}-1-(pyridin-3-ylmethyl)urea], the IC50 [1] is reported as 4 nM and the IC50 ([2]; Homo sapiens, A2780, 72 h) is reported as 89 nM.

For `O=C(NCc1cccnc1)Nc1ccc(S(=O)(=O)c2ccnc(N3CCOCC3)c2Cl)cc1` [3-{4-[3-chloro-2-(morpholin-4-yl)pyridine-4-sulfonyl]phenyl}-1-(pyridin-3-ylmethyl)urea], the IC50 [1] was 4 nM and the IC50 ([2]; Homo sapiens, A2780, 72 h) was 14.2 nM.

Work on `Cc1ccc(C)c(N2CCN(S(=O)(=O)c3ccc(NC(=O)NCc4cccnc4)cc3)CC2)c1` [3-{4-[4-(2,5-dimethylphenyl)piperazine-1-sulfonyl]phenyl}-1-(pyridin-3-ylmethyl)urea] yielded an IC50 [1] of 5 nM and an IC50 ([2]; Homo sapiens, A2780, 72 h) of 101 nM.

`CCOc1ccccc1N1CCN(S(=O)(=O)c2ccc(NC(=O)NCc3cccnc3)cc2)CC1` [3-{4-[4-(2-ethoxyphenyl)piperazine-1-sulfonyl]phenyl]-1-(pyridin-3-ylmethyl)urea] gave an IC50 [1] of 2 nM and an IC50 ([2]; Homo sapiens, A2780, 72 h) of 6 nM.

In the case of `COc1ccccc1N1CCN(S(=O)(=O)c2ccc(NC(=O)NCc3cccnc3)cc2)CC1` [3-{4-[4-(2-methoxyphenyl)piperazine-1-sulfonyl]phenyl}-1-(pyridin-3-ylmethyl)urea], the IC50 [1] is reported as 7 nM and the IC50 ([2]; Homo sapiens, A2780, 72 h) is reported as 35 nM.

`Cc1ccccc1N1CCN(S(=O)(=O)c2ccc(NC(=O)NCc3cccnc3)cc2)CC1` [3-{4-[4-(2-methylphenyl)piperazine-1-sulfonyl]phenyl}-1-(pyridin-3-ylmethyl)urea] was tested, and the IC50 [1] was 6 nM and the IC50 ([2]; Homo sapiens, A2780, 72 h) was 106 nM.

With `O=C(NCc1cccnc1)Nc1ccc(S(=O)(=O)N2CCN(c3c(Cl)cncc3Cl)CC2)cc1` [3-{4-[4-(3,5-dichloropyridin-4-yl)piperazine-1-sulfonyl]phenyl}-1-(pyridin-3-ylmethyl)urea] the IC50 [1] was 3 nM and the IC50 ([2]; Homo sapiens, A2780, 72 h) was 29 nM.

`O=C(NCc1cccnc1)Nc1ccc(S(=O)(=O)N2CCC(O)(c3cccc(Cl)c3)CC2)cc1` [3-{4-[4-(3-chlorophenyl)-4-hydroxypiperidine-1-sulfonyl]phenyl}-1-(pyridin-3-ylmethyl)urea] gave an IC50 [1] of 5.2 nM and an IC50 ([2]; Homo sapiens, A2780, 72 h) of 956 nM.

Molecule `O=C(NCc1cccnc1)Nc1ccc(S(=O)(=O)N2CCN(c3ncccc3Cl)CC2)cc1` [3-{4-[4-(3-chloropyridin-2-yl)piperazine-1-sulfonyl]phenyl}-1-(pyridin-3-ylmethyl)urea] has an IC50 [1] of 1 nM and an IC50 ([2]; Homo sapiens, A2780, 72 h) of 18 nM.
